ChEMBL document CHEMBL4406859, “Antitumor and antiviral activities of 4-substituted 1,2,3-triazolyl-2,3-dibenzyl-L-ascorbic acid derivatives” (Eur J Med Chem, 2019)
Active and inactive are the calls of the source. The rule behind the calls is not given here.

System: Vaccinia virus
Test: Antiviral activity against Vaccinia virus infected in human HELF cells assessed as reduction in virus-induced cytopathogenicity incubated for 7 days by microscopic analysis
Format: functional, organism-based
Conditions: Orthopoxvirus vaccinia; for EC50: 168 h

For `O=C1O/C(=C\Cn2cc(-c3cc(F)cc(F)c3)nn2)C(OCc2ccccc2)=C1OCc1ccccc1`, the Activity was “inactive”.

In the case of `C[Si](C)(C)c1cn(C[C@H](O)[C@H]2OC(=O)C(OCc3ccccc3)=C2OCc2ccccc2)nn1`, the Activity is reported as “inactive”.

For `COc1ccccc1-c1cn(C/C=C2\OC(=O)C(OCc3ccccc3)=C2OCc2ccccc2)nn1`, the Activity was “inactive”.

`Nc1nc2c(ncn2COCCO)c(=O)[nH]1` [ACYCLOVIR] gave an EC50 of over 250 µM.

With `CCCCc1cn(C[C@H](O)[C@H]2OC(=O)C(OCc3ccccc3)=C2OCc2ccccc2)nn1` the Activity was “inactive”.

With `O=C1O/C(=C\Cn2cc(CCO)nn2)C(OCc2ccccc2)=C1OCc1ccccc1` the Activity was “inactive”.

With `O=C1O/C(=C\Cn2cc(-c3cccc(O)c3)nn2)C(OCc2ccccc2)=C1OCc1ccccc1` the Activity was “inactive”.

With `CC(C)(C)c1cn(C/C=C2\OC(=O)C(OCc3ccccc3)=C2OCc2ccccc2)nn1` the Activity was “inactive”.

With `O=C1O/C(=C\Cn2cc(-c3ccc(Br)cc3)nn2)C(OCc2ccccc2)=C1OCc1ccccc1` the Activity was “inactive”.

`O=C1O[C@H]([C@@H](O)Cn2cc(C3CC3)nn2)C(OCc2ccccc2)=C1OCc1ccccc1` was tested, and the Activity was “inactive”.

For `COc1ccc(-c2cn(C/C=C3\OC(=O)C(OCc4ccccc4)=C3OCc3ccccc3)nn2)cc1`, the Activity was “inactive”.

For `Cc1ccc(-c2cn(C/C=C3\OC(=O)C(OCc4ccccc4)=C3OCc3ccccc3)nn2)cc1`, the Activity was “inactive”.

`O=c1[nH]c(=O)n([C@H]2C[C@H](O)[C@@H](CO)O2)cc1/C=C/Br` [BRIVUDINE] gave an EC50 of 85 µM.

`Nc1nc(O)c2ncn(COC(CO)CO)c2n1` [GANCICLOVIR] was tested, and the EC50 was over 100 µM.

For `CC(C)(C)c1cn(C[C@H](O)[C@H]2OC(=O)C(OCc3ccccc3)=C2OCc2ccccc2)nn1`, the Activity was “inactive”.

With `CCCCCCCCCCc1cn(C[C@H](O)[C@H]2OC(=O)C(OCc3ccccc3)=C2OCc2ccccc2)nn1` the Activity was “inactive”.

With `CCCCc1cn(C/C=C2\OC(=O)C(OCc3ccccc3)=C2OCc2ccccc2)nn1` the EC50 was over 100 µM.
